Test system: eight representative weed species
Conditions: in vivo

## CCCC[N+](CCCC)(CCCC)CCCC.[Br-] [Tetrabutylammonium hyrobromide, tetrabutylammonium bromide]
  Mean Activity (%): 72%

Source: US20070082819A1 (priority 2003, published 2007)
